The record followed here is ChEMBL document CHEMBL1139645, “Action of a novel pyrrolo[1,2-c][1.3]benzodiazepine on the viability of Jurkat and neuronal/glial cells” (2005).

The structures appear in SMILES notation.

The subject of one assay is Jurkat. The assay can be described thus: Effect of compound on cell viability in human leukemic Jurkat cells measured as percent reduction of MTT at 570 nm O.D.; Control value 0.47 %. It counts as functional.
A short description of assay [1]: Effect of compound on cell viability in non-transformed neuronal/glial cells measured as percent reduction of MTT at […] O.D.; Control value 0.56 %. It counts as functional, Rattus norvegicus.
Assay [2] is described as follows: Effect of compound on cell viability in non-transformed neuronal/glial cells measured as percent reduction of MTT at 570 nm O.D. and exposure to 100 uM NMDA; Control value 0.56 %. It counts as functional, Rattus norvegicus.
A short description of assay [3]: Effect of compound on cell viability in non-transformed neuronal/glial cells measured as percent reduction of MTT at 570 nm O.D. at 100 uM; Control value 0.56 %. It counts as functional, Rattus norvegicus.

Take `SC1=Nc2ccccc2Cc2cccn21`: the MTT reduction in the assay with Jurkat was determined as 0.22 O.D; in assay [1], 0.58 O.D; in assay [2], 0.17 O.D.

As for `CN[C@H](CC(=O)O)C(=O)O` [N-METHYL-D-ASPARTIC ACID (NMDA)], the MTT reduction in assay [3] was found to be 0.29 O.D.

Regarding `Oc1c2nccc-2c(S)nc2ccccc12`, the results for the MTT reduction (in the assay on Jurkat; in assay [1]; in assay [2]) were 0.45 O.D, 0.55 O.D and 0.25 O.D, respectively.

`Nc1ccccc1Cc1ccc[nH]1`: the MTT reduction was 0.34 O.D with Jurkat, 0.38 O.D in assay [1] and 0.22 O.D in assay [2].

Regarding `O=c1c2ccccc2nc(S)n2cccc12`, the MTT reduction in the assay on Jurkat turned out to be 0.41 O.D; in assay [1], 0.62 O.D; in assay [2] it was 0.28 O.D.

Regarding `Nc1ccccc1C(=O)c1ccc[nH]1`, the MTT reduction in the assay on Jurkat was determined as 0.39 O.D; in assay [1], 0.65 O.D; in assay [2], 0.3 O.D.
